{"source": "the supplement of paper PMC10307832", "test_in_all_cases": "relative viability (nuclei count vs DMSO), 5 days (fraction); higher = more cells survive", "key": {"[1]": {"compound": "CC1=NN=C(O1)C2=NN=C(C=C2)N3CCC(CC3)OC4=C(C=CC(=C4)F)Cl + COc1cccc2cc(-c3nc([C@H]4CC[C@H](C(=O)O)CC4)n4ncnc(N)c34)[nH]c12 [OSI-027] (partner 0.5 µM)", "in_short": "(§1)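 Relative viability equals treated-well nuclei counts divided by vehicle-well nuclei counts. Counts came from 4× images of lung cancer cell lines grown in 1536-well plates for 5 days after pin-tool dosing on the day after seeding. Dosing used one drug alone or a fixed anchor-drug dose plus five library-drug doses (not always all listed) in √10 steps, and values are medians of duplicate plates.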"}, "Tosedostat + Tozasertib": {"compound": "CC(C)C[C@@H](C(=O)N[C@H](C(=O)OC1CCCC1)c1ccccc1)[C@H](O)C(=O)NO [Tosedostat] + Cc1cc(Nc2cc(N3CCN(C)CC3)nc(Sc3ccc(NC(=O)C4CC4)cc3)n2)n[nH]1 [Tozasertib] (partner 0.1 µM)", "in_short": "as §1"}, "[2]": {"compound": "CC1=NN=C(O1)C2=NN=C(C=C2)N3CCC(CC3)OC4=C(C=CC(=C4)F)Cl + Cc1nc(Nc2ncc(C(=O)Nc3c(C)cccc3Cl)s2)cc(N2CCN(CCO)CC2)n1 [Dasatinib] (partner 0.075 µM)", "in_short": "as §1"}, "[3]": {"compound": "CC1=NN=C(O1)C2=NN=C(C=C2)N3CCC(CC3)OC4=C(C=CC(=C4)F)Cl + Nc1nc2[nH]cc(CCc3ccc(C(=O)N[C@@H](CCC(=O)O)C(=O)O)cc3)c2c(=O)[nH]1 [Pemetrexed] (partner 0.2 µM)", "in_short": "as §1"}}, "data": [{"cell line": "UMC-11", "values": [{"measurement": "relative viability", "setting": "[1]; first compound 0.253 µM", "result": 0.446}, {"measurement": "relative viability", "setting": "[1]; first compound 0.8 µM", "result": 0.482}, {"measurement": "relative viability", "setting": "[1]; first compound 2.53 µM", "result": 0.529}, {"measurement": "relative viability", "setting": "[1]; first compound 8 µM", "result": 0.565}, {"measurement": "relative viability", "setting": "Tosedostat + Tozasertib; first compound 0.02 µM", "result": 0.214}, {"measurement": "relative viability", "setting": "Tosedostat + Tozasertib; first compound 0.06325 µM", "result": 0.195}, {"measurement": "relative viability", "setting": "Tosedostat + Tozasertib; first compound 0.2 µM", "result": 0.206}, {"measurement": "relative viability", "setting": "Tosedostat + Tozasertib; first compound 0.6325 µM", "result": 0.197}, {"measurement": "relative viability", "setting": "Tosedostat + Tozasertib; first compound 2 µM", "result": 0.194}, {"measurement": "relative viability", "setting": "[2]; first compound 0.253 µM", "result": 0.473}, {"measurement": "relative viability", "setting": "[2]; first compound 0.8 µM", "result": 0.476}, {"measurement": "relative viability", "setting": "[2]; first compound 2.53 µM", "result": 0.512}, {"measurement": "relative viability", "setting": "[2]; first compound 8 µM", "result": 0.435}, {"measurement": "relative viability", "setting": "[3]; first compound 0.253 µM", "result": 0.504}, {"measurement": "relative viability", "setting": "[3]; first compound 0.8 µM", "result": 0.535}, {"measurement": "relative viability", "setting": "[3]; first compound 2.53 µM", "result": 0.518}, {"measurement": "relative viability", "setting": "[3]; first compound 8 µM", "result": 0.37}]}]}
